Measurements from patent publication US11725036B2, “Modified lipidated relaxin B chain peptides and their therapeutic use” (Sanofi, priority 2018, dated 2023).
In brackets after ≈: the same amount, converted by molar mass. Where two headings read alike, the source gives them in different places. Starred links: 1 amine or outer side, 2 acyl side, 3 side chain; linkers in the order of their positions; H or OH if unused. Non-standard residues stand in square brackets, D forms with d. Residues, ends and D or L forms follow the SMILES beside them. Groups on a side chain read outwards from the residue. *: point of attachment. X3 = CCCCCCCCCCCCCCCCCC(=O)N[C@@H](CCC(=O)N[C@@H](CCC(=O)N[C@@H](CCC(=O)NCCCOCCOCCOCCCNC(=O)CCC(=O)NCCCOCCOCCOCCCNC(=O)CCC(=O)NCCCOCCOCCOCCCN*)C(=O)O)C(=O)O)C(=O)O; X1 = CCCCCCCCCCCCCCCC(=O)N[C@@H](CCC(=O)N[C@@H](CCC(=O)N[C@@H](CCC(=O)NCCCOCCOCCOCCCNC(=O)CCC(=O)NCCCOCCOCCOCCCNC(=O)CCC(=O)NCCCOCCOCCOCCCN*)C(=O)O)C(=O)O)C(=O)O; X4 = CCCCCCCCCCCCCCCCCC(=O)N[C@@H](CCC(=O)N[C@@H](CCC(=O)N[C@@H](CCC(=O)NCCCOCCOCCOCCCNC(=O)CCC(=O)NCCCOCCOCCOCCCN*)C(=O)O)C(=O)O)C(=O)O; Suc = O=C(CCC(=O)[*:2])[*:1]; αMeK = C[C@](N)(CCCCN)C(=O)O; Aib = CC(C)(N)C(=O)O

Assays:
RXFP1 = target: T1, RXFP1 (Homo sapiens, UniProt Q9HBX9); assay: OVCAR5 cAMP assay (HTRF); assay type: cell-based; conditions: for EC50: OVCAR 5 cells expressing endogenous RXFP1, cAMP readout; for Emax: OVCAR 5 cells, maximal cAMP relative to H2-relaxin
T1 construct: OVCAR5 cells expressing endogenous RXFP1; endogenous in cells; host or cells: OVCAR5
T1 sequence (Q9HBX9 1-757): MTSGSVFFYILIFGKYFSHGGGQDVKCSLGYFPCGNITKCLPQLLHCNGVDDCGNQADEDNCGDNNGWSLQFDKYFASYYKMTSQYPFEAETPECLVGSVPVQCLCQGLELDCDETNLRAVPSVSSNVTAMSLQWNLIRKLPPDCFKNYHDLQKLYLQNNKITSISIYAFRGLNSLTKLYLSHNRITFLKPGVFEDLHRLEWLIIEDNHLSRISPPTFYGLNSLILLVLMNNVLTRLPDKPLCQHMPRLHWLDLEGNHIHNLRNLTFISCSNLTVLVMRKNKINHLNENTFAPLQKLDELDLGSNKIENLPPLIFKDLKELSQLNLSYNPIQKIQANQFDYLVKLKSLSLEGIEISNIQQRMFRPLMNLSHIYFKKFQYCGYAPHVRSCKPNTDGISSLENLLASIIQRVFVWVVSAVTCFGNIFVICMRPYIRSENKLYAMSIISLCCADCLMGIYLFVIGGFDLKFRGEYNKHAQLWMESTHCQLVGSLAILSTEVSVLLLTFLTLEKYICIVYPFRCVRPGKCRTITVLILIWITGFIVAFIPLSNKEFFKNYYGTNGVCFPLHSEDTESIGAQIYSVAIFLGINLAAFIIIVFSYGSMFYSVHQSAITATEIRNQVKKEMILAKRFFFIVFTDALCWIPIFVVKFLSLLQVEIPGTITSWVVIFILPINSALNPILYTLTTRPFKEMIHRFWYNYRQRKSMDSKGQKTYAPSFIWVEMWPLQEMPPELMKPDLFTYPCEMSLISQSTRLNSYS
Summary of the method: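 Peptide agonism measured as intracellular cAMP (HTRF) after 30 min at 37° C in serum-free medium, following 40 min 1 mM IBMX preincubation of OVCAR5 cells. Nonlinear regression gave EC50; Emax % = 100 × compound maximal cAMP / H2-relaxin maximal cAMP.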

Stability in rat plasma = assay type: in vitro ADME; conditions: for Rat plasma stability % remaining: T = 0, 37° C., 5 μM
Description: (§1) Prior to the testing of stability in plasma (or blood) of a peptide batch, its purity (HPLC-UV) was determined.
(§2) Rat and Human plasma: anti-coagulant sodium or lithium heparin.
(§3) 100 μM solution of study compound in 50 mM phosphate buffer pH 7.4.
(§4) 950 μL plasma (or blood) was pre-incubated for 5 min at 37° C. 50 μL of compound stock solution was added. Final compound concentration=5 μM. Vortex and transfer 150 μL plasma (or blood) into an Eppendorf for each time point. The time points […] were carried out in duplicate for each species.
(§5) After incubation, 150 μL plasma (or blood) was extracted with 600 μL Acetonitrile containing 1% TFA. Said mixture was then vortexed and centrifuged 10 min at 14600 rpm. 200 μL supernatant was dried under N2. Sample was then reconstituted in 200 μL of H2O/CH3CN 98/2+0.1% FA+50 ng/ml Labetalol and analyzed using the analytical system used in solubility and stability studies.
(§6) For determination of the amount of the remaining peptide, the peak areas of the target compound at t0 and each time point […] were compared, resulting in “% remaining peptide”, following the equation: % remaining peptide=[(peak area peptide time)×100]/peak area peptide t0. The stability was expressed as “% remaining peptide”.

[1] = Stability in human plasma; assay type: in vitro ADME; conditions: for Human Plasma stability % remaining: T = 0, 37° C., 5 μM; for remaining at 1 h, 5 μM / remaining at 4 h, 5 μM: human, plasma (sodium or lithium heparin), 37° C.
Description: as §1, §2, §3, §4, §5, §6

[2] = Solubility testing in buffer; assay type: physicochemical; conditions: target solubility 10.0 mg/ml
in vivo = assay: in vivo; set-up: species or system Sprague Dawley rats; conditions: Sprague Dawley, rat; for bioavailability / Cmax / Tmax: sc; for Cmax / Tmax: 3 mg/kg
Description: Prior to the testing of a peptide batch, its purity (HPLC-UV) was determined. Dose was corrected for presence of salts, solvent and purity. Bioanalytical screening method for quantification of peptides in rat: Sprague Dawley rats were dosed with study peptide at a dose of 1 mg/kg intravenously (i.v.) or 3 mg/kg subcutaneously (s.c.) as a solution in PBS (0.2 mg/ml and 0.6 mg/ml respectively). Blood samples were collected after: 0.083, 0.25, 0.5, 1, 2, 4, 8, 24, 48 and 72 h (i.v. route) and 0.25, 0.5, 1, 2, 4, 6, 8, 10, 24, 48 and 72 h (s.c route) post application. Plasma samples were analyzed after protein precipitation via liquid chromatography mass spectrometry (LC/MS). PK parameters and half-life were calculated using Phoenix 64 (WinNonlin 6.4)-Pharsight (Certara™) (non-compartment model). Values below the limit of quantification (BLQ) were replaced by zero for subsequent calculations and PK analysis. T½: in-vivo half-life, time required for test compound plasma concentration to be divided by two during the PK experiment. C0: Extrapolated test compound plasma concentration at t=0 time point (i.v. route). Cmax: maximal test compound plasma concentration at the indicated time point (s.c. route). Tmax: Time point where Cmax was attained. F %: s.c. vs i.v. bioavailability, dose-corrected area under curve (AUC) s.c. route divided by AUC i.v.

[3] = rat, plasma (sodium or lithium heparin), 37° C.
[4] = acetate buffer 50 mM pH 4.5, read-out: Solubility Acetate buffer pH 4.5
[5] = phosphate buffer 50 mM pH 7.4, read-out: Solubility phosphate buffer pH 7.4

SMILES	EC50 (RXFP1)	Emax (RXFP1)	Rat plasma stability % remaining (Stability in rat plasma)	remaining at 1 h, 5 μM (Stability in rat plasma; [3])	Human Plasma stability % remaining [1]	remaining at 1 h, 5 μM [1]	remaining at 4 h, 5 μM [1]	solubility [2, 4]	solubility [2, 5]	C0 (in vivo; iv, 1 mg/kg)	T½ (h), in-vivo half-life (in vivo; iv, 1 mg/kg)	bioavailability (in vivo)	Cmax (in vivo)	Tmax (in vivo)	half-life (in vivo; iv, 1 mg/kg)	remaining at 4 h, 5 μM (Stability in rat plasma; rat, plasma (sodium or lithium heparin), 4 h, 37° C.)
CCCCCCCCCCCCCCCCCC(=O)N[C@@H](CCC(=O)N[C@@H](CCC(=O)N[C@@H](CCC(=O)NCCCOCCOCCOCCCNC(=O)CCC(=O)NCCCOCCOCCOCCCNC(=O)CCC(=O)NCCCOCCOCCOCCCNC(=O)CCC(=O)NCCCC[C@H](NC(=O)CNC(=O)[C@H](CCC(=O)O)NC(=O)C(C)(C)NC(=O)C(C)(C)NC(=O)[C@@H](NC(=O)[C@H](CCCCNC(C)=O)NC(=O)[C@H](C)NC(=O)[C@H](CCCNC(=N)N)NC(=O)[C@@H](NC(=O)[C@H](CCCCN)NC(=O)[C@H](CCC(=O)O)NC(=O)[C@H](CCCNC(=N)N)NC(=O)CNC(=O)[C@H](CCC(=O)O)NC(=O)[C@H](CC(C)C)NC(C)=O)C(C)C)[C@@H](C)CC)C(=O)N[C@@H](CO)C(=O)N[C@H](C(=O)N[C@@H](Cc1c[nH]c2ccccc12)C(=O)N[C@@H](CO)C(=O)NC(C)(C)C(=O)N[C@@H](CCCNC(=N)N)C(=O)N[C@@H](CCCCN)C(=O)N[C@@H](CCCCNC(C)=O)C(N)=O)[C@@H](C)O)C(=O)O)C(=O)O)C(=O)O [compound 20] (Ac-LEGREKVRAK(Ac)I[Aib][Aib]EGK([Suc-X3])STWS[Aib]RKK(Ac)-NH2)	0.15 nM	96%	100%	100%	87%	100%	83%	9340 µg/mL (≈ 2110 µM)	9950 µg/mL (≈ 2250 µM)	3090 nM	5.13 h	80%	1990 nM	10 h	–	–
CCCCCCCCCCCCCCCCCC(=O)N[C@@H](CCC(=O)N[C@@H](CCC(=O)N[C@@H](CCC(=O)NCCCOCCOCCOCCCNC(=O)CCC(=O)NCCCOCCOCCOCCCNC(=O)CCC(=O)NCCCC[C@H](NC(=O)CNC(=O)[C@H](CCC(=O)O)NC(=O)C(C)(C)NC(=O)C(C)(C)NC(=O)[C@@H](NC(=O)[C@H](CCCCNC(C)=O)NC(=O)[C@H](C)NC(=O)[C@H](CCCNC(=N)N)NC(=O)[C@@H](NC(=O)[C@H](CCCCN)NC(=O)[C@H](CCC(=O)O)NC(=O)[C@H](CCCNC(=N)N)NC(=O)CNC(=O)[C@H](CCC(=O)O)NC(=O)[C@H](CC(C)C)NC(C)=O)C(C)C)[C@@H](C)CC)C(=O)N[C@@H](CO)C(=O)N[C@H](C(=O)N[C@@H](Cc1c[nH]c2ccccc12)C(=O)N[C@@H](CO)C(=O)NC(C)(C)C(=O)N[C@@H](CCCNC(=N)N)C(=O)N[C@@H](CCCCN)C(=O)N[C@@H](CCCCNC(C)=O)C(N)=O)[C@@H](C)O)C(=O)O)C(=O)O)C(=O)O [compound 6] (Ac-LEGREKVRAK(Ac)I[Aib][Aib]EGK([Suc-X4])STWS[Aib]RKK(Ac)-NH2)	0.27 nM	95%	97%	94%	97%	92%	91%	–	–	5170 nM	–	72%	2710 nM	8 h	5.59 h	–
CCCCCCCCCCCCCCCCCC(=O)N[C@@H](CCC(=O)N[C@@H](CCC(=O)N[C@@H](CCC(=O)NCCCOCCOCCOCCCNC(=O)CCC(=O)NCCCOCCOCCOCCCNC(=O)CCC(=O)NCCCOCCOCCOCCCNC(=O)CCC(=O)NCCCC[C@H](NC(=O)CNC(=O)[C@H](CCC(=O)O)NC(=O)C(C)(C)NC(=O)C(C)(C)NC(=O)[C@@H](NC(=O)[C@H](CCCCNC(C)=O)NC(=O)[C@H](C)NC(=O)[C@H](CCCNC(=N)N)NC(=O)[C@@H](NC(=O)[C@H](CCCCN)NC(=O)[C@H](CCC(=O)O)NC(=O)[C@H](CCCNC(=N)N)NC(=O)CNC(=O)[C@H](CCC(=O)O)NC(=O)[C@H](CC(C)C)NC(C)=O)C(C)C)[C@@H](C)CC)C(=O)N[C@@H](CO)C(=O)N[C@H](C(=O)N[C@@H](Cc1ccccc1)C(=O)N[C@@H](CO)C(=O)N[C@@](C)(CCCCN)C(=O)N[C@@H](CCCNC(=N)N)C(=O)N[C@@H](C)C(=O)N[C@@H](CCCCNC(C)=O)C(N)=O)[C@@H](C)O)C(=O)O)C(=O)O)C(=O)O [compound 7] (Ac-LEGREKVRAK(Ac)I[Aib][Aib]EGK([Suc-X3])STFS[αMeK]RAK(Ac)-NH2)	0.07 nM	95%	77%	100%	92%	94%	87%	11400 µg/mL (≈ 2610 µM)	11800 µg/mL (≈ 2700 µM)	4160 nM	–	61%	1530 nM	10 h	6.34 h	66%
CCCCCCCCCCCCCCCC(=O)N[C@@H](CCC(=O)N[C@@H](CCC(=O)N[C@@H](CCC(=O)NCCCOCCOCCOCCCNC(=O)CCC(=O)NCCCOCCOCCOCCCNC(=O)CCC(=O)NCCCOCCOCCOCCCNC(=O)CCC(=O)NCCCC[C@H](NC(=O)CNC(=O)[C@H](CCC(=O)O)NC(=O)C(C)(C)NC(=O)C(C)(C)NC(=O)[C@@H](NC(=O)[C@H](CCCCNC(C)=O)NC(=O)[C@H](C)NC(=O)[C@H](CCCNC(=N)N)NC(=O)[C@@H](NC(=O)[C@H](CCCCN)NC(=O)[C@H](CCC(=O)O)NC(=O)[C@H](CCCNC(=N)N)NC(=O)CNC(=O)[C@H](CCC(=O)O)NC(=O)[C@H](CC(C)C)NC(C)=O)C(C)C)[C@@H](C)CC)C(=O)N[C@@H](CO)C(=O)N[C@H](C(=O)N[C@@H](Cc1ccccc1)C(=O)N[C@@H](CO)C(=O)N[C@@H](CCCCN)C(=O)N[C@@H](CCCNC(=N)N)C(=O)N[C@@H](C)C(=O)N[C@@H](CCCCNC(C)=O)C(N)=O)[C@@H](C)O)C(=O)O)C(=O)O)C(=O)O [compound 13] (Ac-LEGREKVRAK(Ac)I[Aib][Aib]EGK([Suc-X1])STFSKRAK(Ac)-NH2)	2.12 nM	91%	89%	100%	100%	91%	89%	–	7680 µg/mL (≈ 1770 µM)	–	–	–	–	–	–	–
